Source: patent US8673964B2, “Use of drug combinations for treating insulin resistance” (DiaMedica Inc., priority 2004, dated 2014)
“And” between values parts separate entries of the source, which are not always exact repeats. Equal values may be shown once.

What was measured:
sucrose fed rats = assay: Rapid insulin sensitivity test (RIST): meal induced insulin sensitization in control diet and sucrose fed rats; type: in vivo, Sprague Dawley rats; details: individual animals
Protocol: Animal Groups—Male Sprague Dawley rats having a starting weight of ≧220.0 g (Charles River, St. Constant, Quebec, Canada) were fed a normal rat chow diet and regular tap water, with and without the exposure to a 35% liquid sucrose solution for a 2 week period. Six groups of animals were established under the following treatments: […] (2) control diet, bethanechol (0.5 μg/kg ipv) and N-acetyl-L-cysteine (200 mg/kg) treatment (n=8); (3) control diet, bethanechol (0.5 μg/kg ipv) (n=5); (4) control diet, N-acetyl-L-cysteine (200 mg/kg) (n=4); (5) sucrose diet, saline treatment (n=4); (6) sucrose diet, bethanechol (0.5 μg/kg ipv) and N-acetyl-L-cysteine (200 mg/kg) treatment (n=5); (7) sucrose diet, bethanechol (0.5 μg/kg ipv) (n=6); and (8) sucrose diet, N-acetyl-L-cysteine (200 mg/kg) (n=3). Methodology—All animals are 24 hour fasted. The animals are prepared using the standard RIST surgical preparation. The rats are anaesthetized with an intraperitoneal injection of sodium pentobarbital (65 mg kg-1; Somnotol, MTC Pharmaceuticals, Ont). […] The rats are placed on a temperature-controlled surgical table (Harvard Apparatus, Kent, England) and rectal temperature is monitored and held at 37-37.5° C. Spontaneous respiration is allowed through a tracheal tube. An arterial-venous shunt is established, as previous described (Lautt W W et al. Can J Physiol Pharmacol. 1998; 76 (12): 1080-6), for monitoring mean arterial blood pressure (MAP), blood glucose level and for drug delivery. Briefly, two catheters (polyethylene tubing PE60), one inserted into the right femoral artery and the other into the right femoral vein, are connected to the two openings of a three way vascular circuit consisting of a T tube connected with silicon tubing. The third opening of the circuit is connected to a pressure transducer for the recording of the shunt pressure which, when the silicon tubing toward the venous side of the circuit is closed by clamping, represented the systemic arterial blood pressure. Blood samples are taken from the arterial side of the shunt for the glucose measurement. Flowing blood within the shunt assures the real time measurement of the blood glucose concentration, which is essential for the euglycemic clamp test as mentioned below. An infusion line is inserted into the venous side of the loop for drug delivery. Another infusion line connected to the jugular vein is established for glucose infusion. Animals are heparinized (100 IU·kg-1) to prevent clotting in the vascular loop. […] A control RIST is performed as previously described (Lautt W W et al. Can J Physiol Pharmacol. 1998; 76 (12): 1080-6). […] The baseline glucose levels are then determined by samples taken at 5-min intervals and continued until three successive stable determinations were made. […]

[1] = test system: Rats with Insulin Resistance Produced by Hepatic Denervation; assay: RIST in rats with insulin resistance produced by hepatic denervation; type: in vivo
Protocol: Methodology—All animals are 24 hour fasted. The animals are prepared using the standard RIST surgical preparation. The rats are anaesthetized with an intraperitoneal injection of sodium pentobarbital (65 mg kg-1; Somnotol, MTC Pharmaceuticals, Ont). Maintained anesthesia is achieved throughout the experiment by a continuous infusion of pentobarbital sodium (0.5 mg·ml-1 saline given at 50 μl·min-1) through a cannula in the jugular vein, supplemented with a 0.65 mg (0.01 ml) bolus injection when required. The rats are placed on a temperature-controlled surgical table (Harvard Apparatus, Kent, England) and rectal temperature is monitored and held at 37-37.5° C. Spontaneous respiration is allowed through a tracheal tube.
An arterial-venous shunt is established, as previous described (Lautt W W et al. Can J Physiol Pharmacol. 1998; 76 (12): 1080-6), for monitoring mean arterial blood pressure (MAP), blood glucose level and for drug delivery. Briefly, two catheters (polyethylene tubing PE60), one inserted into the right femoral artery and the other into the right femoral vein, are connected to the two openings of a three way vascular circuit consisting of a T tube connected with silicon tubing. The third opening of the circuit is connected to a pressure transducer for the recording of the shunt pressure which, when the silicon tubing toward the venous side of the circuit is closed by clamping, represented the systemic arterial blood pressure. Blood samples are taken from the arterial side of the shunt for the glucose measurement. […]
A control RIST is performed as previously described (Lautt W W et al. Can J Physiol Pharmacol. 1998; 76 (12): 1080-6). […] The baseline glucose levels are then determined by samples taken at 5-min intervals and continued until three successive stable determinations were made. […] After 1-min of insulin infusion, the first test glucose sample is determined and a variable glucose infusion (10%) is initiated. […]

CC(C[N+](C)(C)C)OC(N)=O (stereo not shown) [Bethanechol, bethanechol]
percent potentation of RIST as compared to control (sucrose fed rats; Control Diet, bethanechol 0.5 μg/kg ipv alone, listed as BCH): 9.06% and 15.19% and 35.62% and 33.87% and 60.33% | percent potentation of RIST as compared to control (sucrose fed rats; Sucrose Diet, bethanechol 0.5 μg/kg ipv alone, listed as BCH): 45.59% and 13.22% and −13.22% and 14.22% and 7.71% and 22.36% | RIST index after surgical hepatic denervation ([1]; bethanechol infusion into the portal vein 2.5 mg/kg/min from 10 minutes prior to insulin, entire test period): reversal of the insulin resistance

CC(=O)N[C@@H](CS)C(=O)O [NAC, N-acetyl-L-cysteine]
percent potentation of RIST as compared to control (sucrose fed rats; Control Diet, N-acetyl-L-cysteine 200 mg/kg alone): 33.5% and 27.39% and 57.25% and 1.89% | percent potentation of RIST as compared to control (sucrose fed rats; Sucrose Diet, N-acetyl-L-cysteine 200 mg/kg alone): 3% and −13.85% and −2.63% | RIST index after surgical hepatic denervation ([1]; NAC (200 mg/mL) infusion into the portal vein 0.1 mL/min for 2 minutes): reversal of the insulin resistance

[NH-]c1c[n+](N2CCOCC2)no1 [SIN-1, 3-morpholinosyndnonimine]
RIST index after surgical hepatic denervation ([1]; SIN-1 infusion into the portal vein 10.0 mg/kg/min for 2 minutes): reversal of the insulin resistance
